Consider 18 compounds from article PMC10785756, “Hydrolysis of Antimicrobial Peptides by Extracellular Peptidases in Wastewater” (Environmental Science & Technology, 2023).

Data set [1] has as its system extracellular wastewater peptidases (pool I extracts from WWTP influents). Put plainly: Absolute quantification of transformation products (TPs) formed during AMP incubation with wastewater extracts. Format: in vitro ADME. The procedure:
We thawed enzyme extracts and transferred 1.35 mL to 2 mL protein LoBind Eppendorf tubes. For autoclaved controls, extract aliquots of 1.5 mL were autoclaved for 20 min at 121 °C and 2 bar (Wolf Sanoclav LaS-MCS-J) and 1.35 mL of the autoclaved extracts were transferred into 2 mL protein LoBind Eppendorf tubes. We then spiked 150 μL of the AMP stock solution containing all AMPs at 10 μg/mL to the enzyme extracts or 1.35 mL of ultrapure water. […] Triplicate incubations were conducted for the autoclaved and active extracts with spiked AMP. After AMP spiking, we mixed the solutions by inverting the vials and incubating them at 20 °C under horizontal shaking at 300 rpm. To stop enzymatic reactions at pre-defined sampling time points (i.e., 2 min, 30 min, 1 h, 2 h, and 4 h), we transferred 150 μL of the incubation solution to 450 μL of acetonitrile containing 1% (v/v) formic acid in 1.5 mL protein LoBind Eppendorf tubes, mixed the resulting solution by inverting the tube and by horizontally shaking it at 300 rpm for 2 min at 20 °C, and centrifuged samples at 16,000g for 1 min. This protocol step was conducted according to Luther et al.[9] We then transferred the supernatant into a fresh 1.5 mL protein LoBind Eppendorf tube and dried it in a SpeedVac vacuum concentrator (30 °C for approximately 6 h). To resolubilize AMPs, we added 150 μL of water containing 5% (v/v) acetonitrile and 0.1% (v/v) formic acid, vortexed the samples, and centrifuged them for 10 s at 1000g at room temperature. We transferred the solution into QuanRecovery HPLC vials (Waters, 186009186) and stored the samples at −20 °C until analysis. For method development, selected (and indicated) samples were sonicated (Sonorex Super RK 106, Bandelin, max 480 W) for 5 min at different steps of the sample preparation process.
We analyzed AMPs using UHPLC (Thermo Scientific Dionex Ultimate 3000) equipped with a Waters XSelect PREMIER CSH C18 column (article number: 186009870) coupled to HRMS (Thermo QExactive). […] We used Skyline (version 20.2.0.343) to analyze the raw data. Criteria for parent peptides and hydrolysis product identification were set as described before:[31]m/z deviation <2 ppm, MS/MS fragments with m/z deviation <5 ppm, and reasonable chromatographic peak shape. For products, the peak area had to either increase throughout the incubation experiment or first increase and then decrease.
To learn about the enzymatic hydrolysis pathways of AMPs that we found to be rapidly biotransformed by enzymes in wastewater extracts, we predicted all products of single peptide bond hydrolysis reactions and screened our data-dependent high-resolution mass spectrometry data for experimental evidence in support of the predicted hydrolysis products. These analyses were conducted for the AMPs with the highest biotransformation extents (i.e., >0.5 in at least two WWTPs), namely, cecropin P1, omiganan, and R8. The following requirements for transformation products (TPs) were defined: at least three amino acids, peak area either increases during the incubation experiment or first increases and then decreases, peak area exceeds that in AMP-free enzyme extract by >5-fold and that in spiked autoclaved extracts by >6-fold, and mass deviation <2 ppm from the calculated exact mass. Mass lists, mass deviations, and retention times of all TPs can be found in Tables S6–S11. We further predicted TPs formed via exocleavage mechanisms (i.e., cleavage of one or two terminal amino acids simultaneously from the C- and N- terminus of the peptide) and screened for these TPs in the HRMS data.
For cecropin P1, we performed absolute quantification for TPs II, III, IV, V, VI, and X and found the highest concentrations for TP III. Up to 8.8% of spiked cecropin P1 is converted to TP III during incubations with wastewater extract. For TP II, the conversion ranges from 3.7–5.7%, and for TP V and VI, conversions range between 1.5 and 4.9 and 2.1 and 2.9%, respectively. […]

Data set [2] shares this test system. Put plainly: AMP incubation with active dissolved extracellular wastewater extracts (pool I) from WWTP influents. The class given is in vitro ADME. On the procedure: We took samples from four municipal WWTPs in Austria ([…], and D). […] Where existing, we sampled the following five stages along the wastewater treatment process: influent, primary clarification tank, high-load and low-load aeration tanks, and effluent. […] We took 2 × 500 mL grab samples at each stage using a plastic beaker. We transferred the samples into 500 mL glass bottles leaving roughly one-third of the bottle empty, transported them to the lab, and pooled duplicate samples for further processing. Enzyme extraction started within 1 h after sampling. For total suspended solid (TSS) determination, we filtered 20 mL of each sample through a preweighed, dry GF/F Whatman glass microfiber filter (Sigma-Aldrich, WHA1825047) using a vacuum filtration system, dried the filters at 105 °C for 2 h, and determined the TSS contents from the weight difference. […] Otherwise, the extraction process was the same for pools I and II. All extractions were performed in triplicate, and extracts were kept on ice until further use. […] Triplicate incubations were conducted for the autoclaved and active extracts with spiked AMP. […] This protocol step was conducted according to Luther et al.[9] We then transferred the supernatant into a fresh 1.5 mL protein LoBind Eppendorf tube and dried it in a SpeedVac vacuum concentrator (30 °C for approximately 6 h). […] We transferred the solution into QuanRecovery HPLC vials (Waters, 186009186) and stored the samples at -20 °C until analysis. For method development, selected (and indicated) samples were sonicated (Sonorex Super RK 106, Bandelin, max 480 W) for 5 min at different steps of the sample preparation process. We analyzed AMPs using UHPLC (Thermo Scientific Dionex Ultimate 3000) equipped with a Waters XSelect PREMIER CSH C18 column (article number: 186009870) coupled to HRMS (Thermo QExactive). We injected 10 μL of each sample and applied a flow rate of 0.4 mL/min using the following eluent gradient (A: ultrapure water, B: […] Detection parameters were chosen as follows: […] We used Skyline (version 20.2.0.343) to analyze the raw data. […] For products, the peak area had to either increase throughout the incubation experiment or first increase and then decrease.

Data set [3] deals with dissolved extracellular wastewater enzymes derived from aeration tanks of WWTPs. The following applies: cited from earlier work. The procedure:
Our results on daptomycin are consistent with an earlier study that reported daptomycin concentrations to be stable during its incubation with dissolved extracellular wastewater enzymes derived from aeration tanks of WWTPs.[33] We note that daptomycin concentrations in experiments with autoclaved controls were lower compared to active extracts for ...

[4] abbreviates: maximum TP concentration corrected for sorption to the wastewater matrix.
Where [5] appears, read: maximum TP concentration during incubation of parent AMP with wastewater extracts, synthetic standards, HPLC-HRMS.
Setting [6] is: pool I influent extracts, WWTPs A-D, absolute quantification with synthetic peptide standards, HPLC-HRMS, triplicate incubations.
Where [7] appears, read: pool I influent extracts, WWTPs A-D, active compared with autoclaved extracts, 20 °C, up to 4 h, HPLC-HRMS, triplicate incubations.

Like-named read-outs stand apart in the source and are kept apart here. Peptide text beside a SMILES is read from it.

With `CC[C@H](C)[C@H](NC(=O)[C@H](C)N)C(=O)N[C@@H](CCC(N)=O)C(=O)NCC(=O)NCC(=O)N1CCC[C@H]1C(=O)N[C@@H](CCCNC(=N)N)C(=O)O` [AIQGGPR (V)] (H-AIQGGPR-OH), in data set [1] (setting [4]), the “Potential conc. considering sorption” value was found to be 78.2 µg/L. The “Maximum conc. detected in exp.” value in data set [1] (setting [5]) is 48.6 µg/L.
On to `CC(C)[C@H](NC(=O)[C@H](CCCCN)NC(=O)CNC(=O)[C@H](Cc1ccccc1)NC(=O)[C@@H](NC(=O)[C@H](C)N)C(C)C)C(=O)O` [AVFGKV (V)] (H-AVFGKV-OH), for which the “Potential conc. considering sorption” value in data set [1] (setting [4]) turned out to be 30.0 µg/L. Moreover, the “Maximum conc. detected in exp.” value in data set [1] (setting [5]) stood at 27.5 µg/L.
As to `CC(C)C[C@H](NC(=O)[C@@H](N)Cc1ccccc1)C(=O)NCC(=O)O` [FLG (IV)] (H-Phe-Leu-Gly-OH), in data set [1], the “Maximum conc. detected in exp.” value was 22.8 µg/L and the “Potential conc. considering sorption” value is 29.3 µg/L.
As to `CC(C)C[C@H](NC(=O)[C@@H](N)Cc1ccccc1)C(=O)NCC(=O)N[C@@H](CCCCN)C(=O)N[C@H](C(=O)O)C(C)C` [FLGKV (II)] (H-FLGKV-OH), the “Potential conc. considering sorption” value in data set [1] (setting [4]) stood at 19.5 µg/L. The “Maximum conc. detected in exp.” value in data set [1] (setting [5]) stood at 16.5 µg/L.
As to `CC(C)C[C@H](NC(=O)[C@@H](N)Cc1ccccc1)C(=O)NCC(=O)N[C@@H](CCCCN)C(=O)N[C@H](C(=O)N[C@@H](Cc1ccccc1)C(=O)O)C(C)C` [FLGKVF (I)] (H-FLGKVF-OH), in data set [1] (setting [4]), the “Potential conc. considering sorption” value was 101.9 µg/L. In data set [1] (setting [5]), the “Maximum conc. detected in exp.” value is 78.3 µg/L. Also, the “conversion of spiked parent AMP to the TP during incubation with wastewater extract” value (“conversion of spiked parent AMP” for short) in data set [1] (setting [6]) is “Up to 7.8%”.
With `CC[C@H](C)[C@H](N)C(=O)N[C@@H](CC(C)C)C(=O)N[C@@H](CCCNC(=N)N)C(=O)N[C@@H](Cc1c[nH]c2ccccc12)C(=O)N1CCC[C@H]1C(=O)N[C@@H](Cc1c[nH]c2ccccc12)C(=O)N[C@@H](Cc1c[nH]c2ccccc12)C(=O)N1CCC[C@H]1C(=O)O` [ILRWPWWP (I)] (H-ILRWPWWP-OH), in data set [1], the “Maximum conc. detected in exp.” value is 6.9 µg/L, the “Potential conc. considering sorption” value amounted to 8.1 µg/L and the “conversion of spiked parent AMP” value was “less than 1%”.
With `CC[C@H](C)[C@H](N)C(=O)N[C@@H](CCC(N)=O)C(=O)NCC(=O)NCC(=O)N1CCC[C@H]1C(=O)N[C@@H](CCCNC(=N)N)C(=O)O` [IQGGPR (III)] (H-IQGGPR-OH), the “Potential conc. considering sorption” value in data set [1] (setting [4]) was 124.8 µg/L. Also, in data set [1] (setting [5]), the “Maximum conc. detected in exp.” value was found to be 87.8 µg/L. Also, the “conversion of spiked parent AMP” value in data set [1] (setting [6]) was “Up to 8.8%”.
With `CC(C)C[C@H](NC(=O)[C@H](Cc1c[nH]c2ccccc12)NC(=O)[C@@H](N)CO)C(=O)O` [SWL (IV)] (H-Ser-Trp-Leu-OH), in data set [1], the “Maximum conc. detected in exp.” value came to 2.7 µg/L, the “Potential conc. considering sorption” value was found to be 3.4 µg/L and the “conversion of spiked parent AMP” value is on record as “less than 1%”.
Regarding `CC(C)C[C@H](NC(=O)[C@H](Cc1c[nH]c2ccccc12)NC(=O)[C@@H](N)CO)C(=O)N[C@@H](CO)C(=O)O` [SWLS (II)] (H-SWLS-OH), in data set [1] (setting [4]), the “Potential conc. considering sorption” value was 69.5 µg/L. For the same compound, the “Maximum conc. detected in exp.” value in data set [1] (setting [5]) was found to be 57.1 µg/L. Also, in data set [1] (setting [6]), the “conversion of spiked parent AMP” value is 3.7–5.7%.
For `CC(C)C[C@H](NC(=O)[C@H](Cc1c[nH]c2ccccc12)NC(=O)[C@@H](N)CO)C(=O)N[C@@H](CO)C(=O)N[C@@H](CCCCN)C(=O)N[C@H](C(=O)O)[C@@H](C)O` [SWLSKT (X)] (H-SWLSKT-OH), the “Potential conc. considering sorption” value in data set [1] (setting [4]) worked out at 3.7 µg/L. The “Maximum conc. detected in exp.” value in data set [1] (setting [5]) was found to be 2.9 µg/L. Moreover, the “conversion of spiked parent AMP” value in data set [1] (setting [6]) is “less than 1%”.
As to `CC(C)C[C@H](NC(=O)[C@H](Cc1c[nH]c2ccccc12)NC(=O)[C@@H](N)CO)C(=O)N[C@@H](CO)C(=O)N[C@@H](CCCCN)C(=O)N[C@H](C(=O)N[C@@H](C)C(=O)O)[C@@H](C)O` [SWLSKTA (VI)] (H-SWLSKTA-OH), the “Potential conc. considering sorption” value in data set [1] (setting [4]) came to 36.4 µg/L. For the same compound, the “Maximum conc. detected in exp.” value in data set [1] (setting [5]) turned out to be 28.6 µg/L.
Regarding `CC(C)[C@H](N)C(=O)N[C@@H](Cc1ccccc1)C(=O)NCC(=O)N[C@@H](CCCCN)C(=O)N[C@H](C(=O)O)C(C)C` [VFGKV (VII)] (H-VFGKV-OH), the “Potential conc. considering sorption” value in data set [1] (setting [4]) is 47.1 µg/L. Further, the “Maximum conc. detected in exp.” value in data set [1] (setting [5]) came to 32.1 µg/L.
For bacitracin A, the “removal by biotransformation in active wastewater extracts (in words)” value (“removal by biotransformation” for short) in data set [2] (setting [7]) is recorded as “did not observe substantial removal”.
In the case of colistin A, the “removal by biotransformation” value in data set [2] was “biotransformed”. In data set [2] (pool I influent extracts, WWTPs A-D, all AMPs spiked together (150 μL of 10 μg/mL into 1.35 mL extract), 20 °C, 300 rpm, sampling 2 min to 4 h, HPLC-HRMS, triplicate incubations, maximum over WWTPs), the “detectable removal during incubation, of the amounts detected at the first time point, in active extracts” value was “up to 50%”.
As to colistin B, the “removal by biotransformation” value in data set [2] was “biotransformed”.
Consider daptomycin, for which the “removal by biotransformation” value in data set [2] (setting [7]) is listed as “did not observe substantial removal”. For the same compound, the “daptomycin concentration during incubation with dissolved extracellular wastewater enzymes” value in data set [3] is on record as “stable”.
As for murepavadin, the “removal by biotransformation” value in data set [2] is “did not observe substantial removal”.
omiganan: in data set [2], the “biotransformation extent (eq 1, from concentrations in active and autoclaved extracts)” value was above 0.5; the “removal by biotransformation” value was “rapidly removed to nonquantifiable concentrations”.
